Paper PMC5303003 (Bioorganic & medicinal chemistry, 2017)
Like-named read-outs stand apart in the source and are kept apart here.

Key:
[1] = molecular target: T1, σ1 receptor (Cavia porcellus, UniProt Q60492); conditions: read-out: Ki-σ1 of racemic compounds, previously reported; cited from earlier work
[2] = molecular target: T1, σ1 receptor; experiment: σ1 receptor competitive binding assay; conditions: Ki σ1, (+)-isomer, guinea pig brain membranes, mean ± SEM
[3] = molecular target: emopamil binding protein (EBP); conditions: read-out: Ki for emopamil binding protein (EBP); cited from earlier work
[4] = molecular target: vesicular acetylcholine transporter (VAChT); conditions: cited from earlier work
[5] = molecular target: σ2 receptor; conditions: read-out: Ki-σ2; cited from earlier work
[6] = system: σ1 receptor; experiment: MicroPET blocking study with σ1 ligand pretreatment in nonhuman primate; assay type: in vivo, cynomolgus macaque; conditions: 1.0 mg/kg i.v. 5 min prior to tracer injection, NHP, versus baseline
[7] = molecular target: σ1 receptor; conditions: cited from earlier work; for Ki: read-out: Ki-σ1

T1 sequence (Q60492 whole entry): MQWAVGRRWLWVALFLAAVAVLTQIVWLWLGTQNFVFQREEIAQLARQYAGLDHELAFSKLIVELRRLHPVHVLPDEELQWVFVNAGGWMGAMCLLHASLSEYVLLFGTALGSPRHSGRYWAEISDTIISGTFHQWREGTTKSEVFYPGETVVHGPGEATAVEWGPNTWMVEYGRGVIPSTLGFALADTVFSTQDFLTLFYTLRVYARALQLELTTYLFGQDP

Q: With `O=C(c1ccc(F)cc1)C1CCN(C2CCN(Cc3ccc(F)cc3)CC2O)CC1` (racemic) [14a] as the compound, how does the Ki [1] read?
A: 0.48 nM

Q: For `O=C(c1ccc(F)cc1)C1CCN(C2CCN(Cc3ccc(F)cc3)CC2O)CC1` (single isomer, unassigned; (+)) [(+)-14a], which Ki [2] is on record?
A: 0.14 ± 0.02 nM

Q: For `COc1ccc(CCN2CCN(CCCc3ccccc3)CC2)cc1OC` [SA4503], which Ki [3] is on record?
A: 1.7 nM

Q: And the Ki ([4]; read-out: Ki for VAChT)?
A: 50 nM

Q: With `O=C(Cc1ccccc1F)NC1CCC(Cc2ccccc2)CC1` (centres unmarked) [Yun122, N-(4-benzylcyclohexyl)-2-(2-fluorophenyl)acetamide] as the compound, how does the Ki [5] read?
A: 667 nM

Q: And the “effect of pretreatment on brain uptake of (−)-[18F]TZ3108” value [6]?
A: significantly reduced

Q: What about the Ki [7] of the same compound?
A: 3.6 nM

Q: Which “selectivity for σ1 over VAChT” value [7] does the source give for `COc1ccc(CCN2CCN(CCCc3ccccc3)CC2)cc1O[11CH3]` [[^11C]SA4503, 1-(4-methoxy-3-(methoxy-^11C)phenethyl-^11C)-4-(3-phenyl-propyl)piperazine] here?
A: 11 fold

Q: And the “selectivity for σ1 over σ2 receptor” value [7]?
A: 55 fold

Q: For `O=c1sc2cc(CCCF)ccc2n1CCN1CCCCCC1` [[^18F]FTC-146, ^18F-6-(3-fluoropropyl)-3-(2-(azepan-1 yl)ethyl)benzo-[d]thiazol-2(3H)-one], which Ki [7] is on record?
A: 0.0025 nM

Q: And the Ki ([4]; read-out: Ki-VAChT)?
A: 450 nM
